Target: T1, IL-17A/A (Homo sapiens, UniProt Q16552)
T1 construct: purchased Genscript Z03228
T1 sequence (Q16552 24-155): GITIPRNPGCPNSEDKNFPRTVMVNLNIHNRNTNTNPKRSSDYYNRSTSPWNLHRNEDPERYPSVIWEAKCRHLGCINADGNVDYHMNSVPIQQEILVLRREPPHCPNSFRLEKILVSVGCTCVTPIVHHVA
Test: IL-17A/A HEK-Blue Cell Assay
Format: cell-based
Details: HEK-Blue IL-17A reporter cell line, SEAP readout at A630, 20 hours incubation with IL-17A/A, top concentration 10 uM, 1 uM or 0.3 uM; for IC50: read-out: IL-17A/A inhibition (pIC50) (converted)

IC50 [nM]	Compound	IL-17A/A inhibition (pIC50)
< 10	CCC(=O)N[C@@H](C(=O)N1CCN(C)CC1)[C@@H](C)c1ccc(NC(=O)[C@@H](NC(=O)C(F)(F)c2ccc(OC)nc2)[C@H]2CC[C@H](C)CC2)c(F)c1 [Compound 295]	–
10 to 100	CCC(=O)N[C@@H](C(=O)N1CCN(C)CC1)[C@@H](C)c1ccc(NC(=O)C(NC(=O)c2ccnn2CC)C(C)c2ccc(C)cc2)c(F)c1 (single isomer, unassigned) [Compound 294]	–
100 to 10000	CCC(=O)N[C@@H](C(=O)N1CCN(C)CC1)[C@@H](C)c1ccc(NC(=O)C(NC(=O)c2nonc2CC)C2CCc3cc(F)ccc32)c(F)c1 (single isomer, unassigned) [Compound 569]	–
10 to 100	CCC(=O)N[C@@H](C(=O)N1CCS(=O)(=O)CC1)[C@@H](C)c1ccc(NC(=O)[C@@H](NC(=O)c2ccnn2CC)C2CCCCC2)c(F)c1 [Compound 361]	–
< 10	CCC(=O)N[C@@H](C(=O)N1CCN(C)CC1)[C@@H](C)c1ccc(NC(=O)[C@@H](NC(=O)c2ccnn2C(C)C)[C@H]2CC[C@H](C)CC2)c(F)c1 [Compound 253]	–
100 to 10000	CCC(=O)N[C@H](Cc1ccc(NC(=O)[C@@H](NC(=O)c2ccnn2CC)[C@H]2CC[C@H](C)CC2)c(F)c1)C(=O)N1CCN(C)CC1 [Compound 627]	–
< 10	CCC(=O)N[C@@H](C(=O)N1CCC(C)(OC)CC1)[C@@H](C)c1ccc(NC(=O)[C@@H](NC(=O)c2ccnn2CC)[C@H]2CC[C@H](C)CC2)c(F)c1 [Compound 437]	–
10 to 100	CCC(=O)N[C@@H](C(=O)N1CCN(C)CC1)[C@@H](C)c1ccc(NC(=O)[C@@H](NC(=O)c2csc3cnccc23)C2CCCCC2)c(F)c1 [Compound 249]	–
< 10	CCC(=O)N[C@@H](C(=O)N1CCN(C)CC1)[C@@H](C)c1ccc(NC(=O)C(NC(=O)c2nonc2CC)C2CCc3cc(F)ccc32)c(F)c1 (single isomer, unassigned) [Compound 570]	–
10 to 100	CCn1nccc1C(=O)N[C@H](C(=O)Nc1ccc([C@H](C)[C@@H](NC(=O)CC2CC2)C(=O)N2CCN(C)CC2)cc1F)C1CCCCC1 [Compound 307]	–
100 to 10000	CCC(=O)N[C@H](Cc1ccc(NC(=O)C(NC(=O)c2ccnn2CC)C2CCc3ccccc3C2)c(F)c1)C(=O)N1CCN(C)CC1 (stereo partly shown) [Compound 634]	–
10 to 100	CCC(=O)N[C@@H](C(=O)N1CCN(CCOC)CC1)[C@@H](C)c1ccc(NC(=O)[C@@H](NC(=O)c2ccnn2CC)C2CCCCC2)c(F)c1 [Compound 358]	–
< 10	CCC(=O)N[C@@H](C(=O)N1CCN(C)CC1)[C@@H](C)c1ccc(NC(=O)[C@@H](NC(=O)c2csc3ccccc23)C2CCCCCC2)c(F)c1 [Compound 259]	–
10 to 100	CCC(=O)N[C@@H](C(=O)N1CCC(F)(F)CC1)[C@@H](C)c1ccc(NC(=O)[C@@H](NC(=O)c2ccnn2CC)[C@H]2CC[C@H](C)CC2)c(F)c1 [Compound 369]	–
100 to 10000	CCC(=O)N[C@H](Cc1ccc(NC(=O)[C@@H](NC(=O)c2ccnn2C(C)C)C2CCCCC2)c(F)c1)C(=O)N1CCN(C)CC1 [Compound 637]	–
100 to 10000	CCC(=O)N[C@@H](C(=O)N1CCN(C)CC1)[C@@H](C)c1ccc(NC(=O)C(NC(=O)c2nonc2CC)C(C)c2ccccc2Cl)c(F)c1 (stereo partly shown) [Compound 521]	–

The next lines start with the compound.

Compound	IC50 [nM]	IL-17A/A inhibition (pIC50)
CCC(=O)N[C@H](Cc1ccc(NC(=O)[C@@H](NC(=O)c2ccnn2CC)C2CCCCC2)c(F)c1)C(=O)NCCN(C)C [Compound 749]	–	X2a (compounds were evaluated up to 1 uM and did not inhibit activity by >80%, however they showed some activity at 1 uM (less than 80% and more than 20%))
CCC(=O)N[C@@H](C(=O)N1CCC(F)(F)CC1)[C@@H](C)c1ccc(NC(=O)[C@@H](NC(=O)c2nonc2CC)[C@H]2CC[C@H](C)CC2)c(F)c1 [Compound 468]	10 to 100	–
CCC(=O)N[C@@H](C(=O)N1CCN(Cc2ccccc2)CC1)[C@@H](C)c1ccc(NC(=O)[C@@H](NC(=O)C(F)(F)c2cncc(OC)c2)[C@H]2CC[C@H](C)CC2)c(F)c1 [Compound 532]	10 to 100	–
CCn1nccc1C(=O)N[C@H](C(=O)Nc1ccc([C@H](C)[C@@H](NC(=O)c2ccn(C)n2)C(=O)N2CCN(C)CC2)cc1F)C1CCCCC1 [Compound 744]	–	X2a (compounds were evaluated up to 1 uM and did not inhibit activity by >80%, however they showed some activity at 1 uM (less than 80% and more than 20%))
CCC(=O)N[C@@H](C(=O)N1CCN(C)CC1)[C@@H](C)c1ccc(NC(=O)[C@@H](NC(=O)c2coc3c2COC3)[C@H]2CC[C@H](C)CC2)c(F)c1 [Compound 277]	< 10	–
COc1ncc(C(F)(F)C(=O)N[C@H](C(=O)Nc2ccc([C@H](C)[C@@H](NC(=O)c3cnns3)C(=O)N3CCN(C)CC3)cc2F)[C@H]2CC[C@H](C)CC2)cn1 [Compound 621]	10 to 100	–
CCC(=O)N[C@H](Cc1ccc(NC(=O)[C@@H](NC(=O)c2ccc(S(=O)(=O)NC)s2)C2CCCCC2)c(F)c1)C(=O)N1CCN(C)CC1 [Compound 718]	–	X2a (compounds were evaluated up to 1 uM and did not inhibit activity by >80%, however they showed some activity at 1 uM (less than 80% and more than 20%))
CCC(=O)N[C@@H](C(=O)N1CCN(C)CC1)[C@@H](C)c1ccc(NC(=O)C(NC(=O)c2nonc2CC)C(CC)c2ccc(Cl)cc2)c(F)c1 (stereo partly shown) [Compound 567]	–	X2b (compounds were evaluated up to 1 uM and inhibited activity at 1 uM by less than 20%)
CCC(=O)N[C@H](Cc1ccc(NC(=O)[C@@H](NC(=O)c2ccnn2CC)C2CCCCC2)c(F)c1)C(=O)N1CCC(C)(O)CC1 [Compound 382]	10 to 100	–
CCC(=O)N[C@H](Cc1ccc(NC(=O)[C@@H](NC(=O)c2ccnn2C(C)C)C2CCC(F)(F)CC2)c(F)c1)C(=O)N1CCN(C)CC1 [Compound 672]	100 to 10000	–
COc1ccc(C(F)(F)C(=O)N[C@H](C(=O)Nc2ccc(C[C@@H](NC(=O)c3cnns3)C(=O)N3CCN(C)CC3)cc2F)C2CCCCC2)cn1 [Compound 323]	10 to 100	–
CCn1nnnc1C(=O)N[C@H](C(=O)Nc1ccc([C@H](C)[C@@H](NC(=O)c2cnns2)C(=O)N2CCN(C)CC2)cc1F)[C@H]1CC[C@H](C)CC1 [Compound 525]	10 to 100	–
CCC(=O)N[C@@H](C(=O)N1CCN(C)CC1)[C@@H](C)c1ccc(NC(=O)[C@@H](NC(=O)C(F)(F)c2ccc(OC)nc2)C2CCCCCC2)cc1 [Compound 222]	10 to 100	–
CCn1ncnc1C(=O)N[C@H](C(=O)Nc1ccc([C@H](C)[C@@H](NC(=O)c2cnns2)C(=O)N2CCN(C)CC2)cc1F)[C@H]1CC[C@H](C)CC1 [Compound 410]	10 to 100	–
CCn1nccc1C(=O)N[C@H](C(=O)Nc1ccc([C@H](C)[C@@H](NC(=O)c2cnsc2)C(=O)N2CCN(C)CC2)cc1F)[C@H]1CC[C@H](C)CC1 [Compound 487]	–	B (8>B≥7 as B)
C[C@@H](c1ccc(NC(=O)[C@@H](NC(=O)c2ccnn2C2COC2)[C@H]2CC[C@H](C)CC2)c(F)c1)[C@@H](NC(=O)c1cnns1)C(=O)N1CCN(C)CC1 [Compound 546]	10 to 100	–
CCC(=O)N[C@@H](C(=O)N1CCN(C)CC1)[C@@H](C)c1ccc(NC(=O)[C@@H](NC(=O)C(F)(F)c2ccc(OC)nc2)C2CCCCC2)cc1 [Compound 221]	10 to 100	–
CCC(=O)N[C@@H](C(=O)N1CCC(C)(O)CC1)[C@@H](C)c1ccc(NC(=O)[C@@H](NC(=O)C(F)(F)c2nc(C)cs2)[C@H]2CC[C@H](C)CC2)c(F)c1 [Compound 376]	10 to 100	–
